For data set [1], the system named is MH7A rheumatoid arthritis synovial fibroblast cell line. The data set can be described thus: WST-8 cytotoxicity assay. Type of data set: cell-based. The settings on record: MH7A cells, 24 hours incubation, WST-8 absorbance at 450 nm. As for the experimental part:
WST-8 assay (Cayman Chemical Company, Ann Arbor, Mich.) was conducted on the MH7A rheumatoid arthritis synovial fibroblast cell line, following the manufacturer's instructions, to assess the cytotoxicity of the PSA-TMC nanoparticles. NADH produced within the mitochondria reduces WST-8 tetrazolium salt to formazan dye, which can be quantified by absorbance measurements at 450 nm. Cells were seeded into 96-well cell culture plate (2×10^4 cells per well) and cultured for 24 hr at 37° C., 5% CO2. PSA-TMC (0.5:1) was added to yield a series of concentrations from 0.3125 to ˜20 mg/mL, and the cultures were incubated for an additional 24 hours. 10 μL of WST-8 solution were added to each well. After a 90 minute incubation period, absorbance was measured with a Synergy 2 multimode microplate reader (BioTek Instruments, Winooski, Vt.) at 450 nm. The cytotoxicities of TMC TPP and alone were also evaluated following the above procedure. Untreated MH7A synovial fibroblast cultures were used as controls. Relative absorbance versus concentration was plotted for each set of additives, and a four parameter logistic, constructed with Kaleidagraph software, was used to fit the data to determine the IC50 values. Each experiment was repeated independently at least two times.
(Tetrazolium dyes change colour on reduction, which living cells bring about.)

For a further data set, the system named is rheumatoid arthritis. Particulars: cited from earlier work.
For data set [2] the following is noted: orally administered, patients; cited from earlier work.

By IC50 is commonly meant the concentration that gives 50% inhibition.

As for `O=P(O)(O)OP(=O)(O)OP(=O)(O)O` [TPP, sodium tripolyphosphate], the IC50 in data set [1] amounted to 0.22 ± 0.04 mg/mL.
For the compound `CN(Cc1cnc2nc(N)nc(N)c2n1)c1ccc(C(=O)N[C@@H](CCC(=O)O)C(=O)O)cc1` [methotrexate, Methotrexate], in the data set on rheumatoid arthritis (RA patients treated with methotrexate), the “reduction in the risk of early mortality” value is recorded as 60%. Also, the “reduction in deaths due to RA related cardiovascular disease” value in the data set on rheumatoid arthritis (individuals prescribed methotrexate) is recorded as 70%. For the same compound, the “patients who developed severe fibrosis or cirrhosis” value in the data set on rheumatoid arthritis (over 55 months of treatment, rheumatoid arthritis) is reported as 3%. In data set [2], the elimination half-lives result was “six to fifty-five”.

Values taken from patent US9241913B2, “Polysialic acid-based N-trimethyl chitosan gel nanoparticles for systemic drug delivery” (Syracuse University, priority 2011, dated 2016).
